pIC50: −log10 of the molar value. Positions of bridges follow the written chain, without caps; N, C: chain ends. Residues, ends and D or L forms follow the SMILES beside them. A value given as a limit tells only on which side of the number the result lay.

In this experiment the target is T1, IL17-RE-IL-17C (Homo sapiens, UniProt Q8NFR9+Q9P0M4).
T1 sequence (Q9P0M4 whole entry): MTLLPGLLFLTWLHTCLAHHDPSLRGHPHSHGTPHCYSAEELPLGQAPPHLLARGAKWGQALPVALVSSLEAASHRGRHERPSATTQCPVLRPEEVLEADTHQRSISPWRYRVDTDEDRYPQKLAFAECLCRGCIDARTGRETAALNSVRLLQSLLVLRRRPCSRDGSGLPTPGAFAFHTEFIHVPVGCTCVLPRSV
T1 sequence (Q8NFR9 whole entry): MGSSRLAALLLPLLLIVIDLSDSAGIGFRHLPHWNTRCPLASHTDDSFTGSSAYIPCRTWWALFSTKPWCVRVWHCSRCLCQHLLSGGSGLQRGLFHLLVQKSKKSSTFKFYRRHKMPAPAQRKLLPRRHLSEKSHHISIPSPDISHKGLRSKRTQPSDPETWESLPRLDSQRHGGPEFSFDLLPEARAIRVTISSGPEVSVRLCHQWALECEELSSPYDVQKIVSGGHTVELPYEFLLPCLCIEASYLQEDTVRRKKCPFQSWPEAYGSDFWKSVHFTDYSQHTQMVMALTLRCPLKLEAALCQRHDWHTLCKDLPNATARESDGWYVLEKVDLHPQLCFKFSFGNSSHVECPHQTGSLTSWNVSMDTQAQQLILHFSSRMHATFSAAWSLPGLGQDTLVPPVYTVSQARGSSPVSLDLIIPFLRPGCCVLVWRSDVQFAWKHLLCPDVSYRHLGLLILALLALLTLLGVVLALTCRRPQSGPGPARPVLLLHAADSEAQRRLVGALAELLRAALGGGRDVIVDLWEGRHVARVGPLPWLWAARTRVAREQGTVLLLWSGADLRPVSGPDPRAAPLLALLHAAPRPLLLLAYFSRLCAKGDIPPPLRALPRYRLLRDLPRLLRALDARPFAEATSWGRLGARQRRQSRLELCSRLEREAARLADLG
Put plainly: Inhibition of IL-17C/IL-17RE interaction (unknown origin) incubated for 1.5 hrs by ELISA method. The experiment is classed as protein-complex assay.
Turning to `CC(C)C[C@@H]1NC(=O)[C@H](Cc2c[nH]c3ccccc23)NC(=O)[C@H](CO)NC(=O)[C@H](CC(=O)O)NC(=O)[C@H](Cc2ccccc2)NC(=O)[C@H](Cc2c[nH]cn2)NC(=O)[C@H](Cc2ccc(O)cc2)NC(=O)CSC[C@@H](C(=O)NCC(N)=O)NC(=O)[C@H](CCCCN)NC(=O)[C@H](CC(C)C)NC(=O)[C@H](CCCNC(=N)N)NC(=O)[C@H](CCCCN)NC(=O)[C@H](C)NC1=O` ({CH2CO}-YHFDSWLAKRLKCG-NH2; thioether N-13), the pIC50 was under 4.52. Then `CC[C@H](C)[C@@H]1NC(=O)[C@H](CCCNC(=N)N)NC(=O)[C@H](Cc2ccc(O)cc2)NC(=O)[C@H](Cc2ccc(O)cc2)NC(=O)[C@H](Cc2c[nH]cn2)NC(=O)[C@H](Cc2c[nH]cn2)NC(=O)[C@H](Cc2ccc(O)cc2)NC(=O)CSC[C@@H](C(=O)NCC(N)=O)NC(=O)CNC(=O)[C@H](CC(C)C)NC(=O)[C@H](CCC(=O)O)NC(=O)[C@H](CO)NC(=O)[C@H](Cc2ccc(O)cc2)NC(=O)[C@H](CC(C)C)NC1=O` ({CH2CO}-YHHYYRILYSELGCG-NH2; thioether N-14), with 5.87; and `CC[C@H](C)[C@@H]1NC(=O)[C@H](Cc2c[nH]c3ccccc23)NC(=O)[C@H](C)NC(=O)[C@H](CC(=O)O)NC(=O)[C@H](Cc2ccccc2)NC(=O)[C@H](Cc2c[nH]cn2)NC(=O)[C@H](Cc2ccc(O)cc2)NC(=O)CSC[C@@H](C(=O)NCC(N)=O)NC(=O)[C@H](CCC(N)=O)NC(=O)[C@H](CC(C)C)NC(=O)[C@H](CC(C)C)NC(=O)[C@H]([C@@H](C)O)NC(=O)[C@H](C)NC1=O` ({CH2CO}-YHFDAWIATLLQCG-NH2; thioether N-13), with under 4.52; and `CC(C)C[C@@H]1NC(=O)[C@H](CCC(=O)O)NC(=O)CNC(=O)[C@H](Cc2ccc(O)cc2)NC(=O)[C@H](CC(C)C)NC(=O)[C@H](C(C)C)NC(=O)[C@H](CCCNC(=N)N)NC(=O)[C@H](Cc2ccc(O)cc2)NC(=O)[C@H](Cc2ccc(O)cc2)NC(=O)[C@H](Cc2c[nH]cn2)NC(=O)[C@H](Cc2cnc[nH]2)NC(=O)[C@H](Cc2ccc(O)cc2)NC(=O)CSC[C@@H](C(=O)NCC(N)=O)NC(=O)CNC1=O` ({CH2CO}-YHHYYRVLYGELGCG-NH2; thioether N-14), with 6.38. Then `CC[C@H](C)[C@@H]1NC(=O)[C@H](Cc2c[nH]cn2)NC(=O)[C@H](Cc2ccc(O)cc2)NC(=O)CSC[C@@H](C(=O)NCC(N)=O)NC(=O)CNC(=O)[C@H](CC(C)C)NC(=O)[C@H]([C@H](C)O)NC(=O)CNC(=O)[C@H](Cc2ccc(O)cc2)NC(=O)[C@H](CC(C)C)NC(=O)[C@H](CO)NC(=O)[C@H](Cc2ccc(O)cc2)NC(=O)[C@H](Cc2ccc(O)cc2)NC(=O)[C@H](Cc2ccc(O)cc2)NC1=O`, with 8.54. Then `CC[C@H](C)[C@@H]1NC(=O)[C@H](Cc2c[nH]cn2)NC(=O)[C@H](Cc2ccc(O)cc2)NC(=O)CSC[C@@H](C(=O)NCC(N)=O)NC(=O)CNC(=O)[C@H](CC(C)C)NC(=O)[C@H](CC(C)C)NC(=O)CNC(=O)[C@H](Cc2ccc(O)cc2)NC(=O)[C@H](CC(C)C)NC(=O)[C@H](CO)NC(=O)[C@H](C)NC(=O)[C@H](Cc2ccc(O)cc2)NC(=O)[C@H](Cc2ccc(O)cc2)NC1=O` ({CH2CO}-YHIYYASLYGLLGCG-NH2; thioether N-14), with 7.92. As to `CC(C)C[C@@H]1NC(=O)[C@H](CO)NC(=O)CNC(=O)[C@H](Cc2ccc(O)cc2)NC(=O)[C@H](CC(C)C)NC(=O)[C@H](CO)NC(=O)[C@H](Cc2ccc(O)cc2)NC(=O)[C@H](Cc2ccc(O)cc2)NC(=O)[C@H](Cc2ccc(O)cc2)NC(=O)[C@H](C(C)C)NC(=O)[C@H](Cc2c[nH]cn2)NC(=O)[C@H](Cc2ccc(O)cc2)NC(=O)CSC[C@@H](C(=O)NCC(N)=O)NC(=O)CNC1=O` ({CH2CO}-YHVYYYSLYGSLGCG-NH2; thioether N-14), the pIC50 is 8.48. Then `CC[C@H](C)[C@@H]1NC(=O)[C@H](CCCNC(=N)N)NC(=O)[C@H](Cc2ccc(O)cc2)NC(=O)[C@H](Cc2ccc(O)cc2)NC(=O)[C@H](Cc2c[nH]cn2)NC(=O)[C@H](Cc2c[nH]cn2)NC(=O)[C@H](Cc2ccc(O)cc2)NC(=O)CSC[C@@H](C(=O)NCC(N)=O)NC(=O)CNC(=O)[C@H](C)NC(=O)[C@H](CCC(=O)O)NC(=O)CNC(=O)[C@H](Cc2ccc(O)cc2)NC(=O)[C@H](CC(C)C)NC1=O` ({CH2CO}-YHHYYRILYGEAGCG-NH2; thioether N-14), with under 4.52; and `CC(C)C[C@@H]1NC(=O)[C@H](Cc2c[nH]c3ccccc23)NC(=O)[C@H](C)NC(=O)[C@H](CC(=O)O)NC(=O)[C@H](Cc2ccccc2)NC(=O)[C@H](Cc2c[nH]cn2)NC(=O)[C@H](Cc2ccc(O)cc2)NC(=O)CSC[C@@H](C(=O)NCC(N)=O)NC(=O)[C@H](CC(C)C)NC(=O)[C@H](CC(C)C)NC(=O)[C@H]([C@@H](C)O)NC(=O)[C@H](CO)NC1=O` ({CH2CO}-YHFDAWLSTLLCG-NH2; thioether N-12), with under 4.52. Then `CC(C)C[C@@H]1NC(=O)[C@H](CC(N)=O)NC(=O)CNC(=O)[C@H](Cc2ccc(O)cc2)NC(=O)[C@H](CC(C)C)NC(=O)[C@H](CC(C)C)NC(=O)[C@H](CCCNC(=N)N)NC(=O)[C@H](Cc2ccc(O)cc2)NC(=O)[C@H](Cc2ccc(O)cc2)NC(=O)[C@H](CCC(N)=O)NC(=O)[C@H](Cc2c[nH]cn2)NC(=O)[C@H](Cc2ccc(O)cc2)NC(=O)CSC[C@@H](C(=O)NCC(N)=O)NC(=O)CNC1=O` ({CH2CO}-YHQYYRLLYGNLGCG-NH2; thioether N-14), with 7.58; and `CC[C@H](C)[C@@H]1NC(=O)[C@H](CCCNC(=N)N)NC(=O)[C@H](Cc2ccc(O)cc2)NC(=O)[C@H](Cc2c[nH]cn2)NC(=O)[C@H](Cc2c[nH]cn2)NC(=O)[C@H](Cc2c[nH]cn2)NC(=O)[C@H](Cc2ccc(O)cc2)NC(=O)CSC[C@@H](C(=O)NCC(N)=O)NC(=O)CNC(=O)[C@H](CC(C)C)NC(=O)[C@H](CCC(=O)O)NC(=O)CNC(=O)[C@H](Cc2ccc(O)cc2)NC(=O)[C@H](CC(C)C)NC1=O` ({CH2CO}-YHHHYRILYGELGCG-NH2; thioether N-14), with 5.16. Turning to `CC[C@H](C)[C@@H]1NC(=O)[C@H](Cc2c[nH]cn2)NC(=O)[C@H](Cc2ccc(O)cc2)NC(=O)CSC[C@@H](C(=O)NCC(N)=O)NC(=O)CNC(=O)[C@H](CC(C)C)NC(=O)[C@H](CO)NC(=O)CNC(=O)[C@H](Cc2ccc(O)cc2)NC(=O)[C@H](CC(C)C)NC(=O)[C@H](CO)NC(=O)[C@H](CO)NC(=O)[C@H](Cc2ccc(O)cc2)NC(=O)[C@H](Cc2ccc(O)cc2)NC1=O` ({CH2CO}-YHIYYSSLYGSLGCG-NH2; thioether N-14), the pIC50 was 8.15. Then `CC[C@H](C)[C@@H]1NC(=O)[C@H](CO)NC(=O)[C@H](Cc2ccc(O)cc2)NC(=O)[C@H](Cc2ccc(O)cc2)NC(=O)[C@H](Cc2c[nH]cn2)NC(=O)[C@H](Cc2c[nH]cn2)NC(=O)[C@H](Cc2ccc(O)cc2)NC(=O)CSC[C@@H](C(=O)NCC(N)=O)NC(=O)CNC(=O)[C@H](CC(C)C)NC(=O)[C@H](CCC(=O)O)NC(=O)CNC(=O)[C@H](Cc2ccc(O)cc2)NC(=O)[C@H](CC(C)C)NC1=O` ({CH2CO}-YHHYYSILYGELGCG-NH2; thioether N-14), with 5.60; and `CC[C@H](C)[C@@H]1NC(=O)[C@H](CCC(=O)O)NC(=O)CNC(=O)[C@H](Cc2ccc(O)cc2)NC(=O)[C@H](CC(C)C)NC(=O)[C@H]([C@@H](C)CC)NC(=O)[C@H](CCCNC(=N)N)NC(=O)[C@H](Cc2ccc(O)cc2)NC(=O)[C@H](Cc2ccc(O)cc2)NC(=O)[C@H](Cc2c[nH]cn2)NC(=O)[C@H](Cc2c[nH]cn2)NC(=O)[C@H](Cc2ccc(O)cc2)NC(=O)CSC[C@@H](C(=O)NCC(N)=O)NC(=O)CNC1=O` ({CH2CO}-YHHYYRILYGEIGCG-NH2; thioether N-14), with 6.37; and `CC[C@H](C)[C@@H]1NC(=O)[C@H](Cc2c[nH]cn2)NC(=O)[C@H](Cc2ccc(O)cc2)NC(=O)CSC[C@@H](C(=O)NCC(N)=O)NC(=O)CNC(=O)[C@H](CC(C)C)NC(=O)[C@H](CCCCN)NC(=O)[C@H](CCC(N)=O)NC(=O)[C@H](Cc2ccc(O)cc2)NC(=O)[C@H]([C@@H](C)CC)NC(=O)[C@H](CCC(N)=O)NC(=O)[C@H](CCCNC(=N)N)NC(=O)[C@H](Cc2ccc(O)cc2)NC(=O)[C@H](Cc2ccc(O)cc2)NC1=O` ({CH2CO}-YHIYYRQIYQKLGCG-NH2; thioether N-14), with 6.48.

For `CC[C@H](C)[C@@H]1NC(=O)[C@H](Cc2c[nH]cn2)NC(=O)[C@H](Cc2ccc(O)cc2)NC(=O)CSC[C@@H](C(=O)NCC(N)=O)NC(=O)CNC(=O)[C@H](CC(C)C)NC(=O)[C@H](CC(N)=O)NC(=O)CNC(=O)[C@H](Cc2ccc(O)cc2)NC(=O)[C@H](CC(C)C)NC(=O)[C@H](CO)NC(=O)[C@H](CCCNC(=N)N)NC(=O)[C@H](Cc2ccc(O)cc2)NC(=O)[C@H](Cc2ccc(O)cc2)NC1=O` ({CH2CO}-YHIYYRSLYGNLGCG-NH2; thioether N-14), the pIC50 was 8.77.

The values are drawn from ChEMBL document CHEMBL5360618, “PepScaf: Harnessing Machine Learning with In Vitro Selection toward De Novo Macrocyclic Peptides against IL-17C/IL-17RE Interaction” (J Med Chem, 2023).
